# Numbers after ± are expanded uncertainties.
# Tests used:
# [1] = Drop volume
# [2] = xn = mol fraction of the nth substance listed; conditions: Drop volume, x1 = 0.5412
surface tension liquid-gas ([1]; 293.15 K) [mN/m],surface tension liquid-gas ([1]; 303.15 K) [mN/m],surface tension liquid-gas ([1]; 313.15 K) [mN/m],surface tension liquid-gas ([2]; 313.15 K) [mN/m],surface tension liquid-gas ([2]; 323.15 K) [mN/m],surface tension liquid-gas ([2]; 333.15 K) [mN/m],surface tension liquid-gas ([2]; 343.15 K) [mN/m],Structure (SMILES)
48.48 ± 0.47,47.64 ± 0.46,46.88 ± 0.46,,,,,NCCO [2-aminoethan-1-ol]
,,,51.5 ± 1.8,50.4 ± 1.8,49.3 ± 1.8,48.1 ± 1.8,NCCO [2-aminoethan-1-ol] + O

# From the NIST ThermoML archive (doi:10.1021/je300920t)
